Literature values as cited in patent US20230020217A1, “HEPES-CONTAINING MEDIUM” (AJINOMOTO CO., INC., priority 2020, published 2023).

Conditions: when exposed to light for a long time (Zigler et al. 1985)

**Q.** Which toxicity does the source give for O=S(=O)(O)CCN1CCN(CCO)CC1 [HEPES, 4-(2-hydroxyethyl)-1-piperazineethanesulfonic acid] here?
**A.** toxicity derived from hydrogen peroxide
